From ChEMBL document CHEMBL1201862, “PubChem BioAssay data set” (2004)
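Tested at 5 concentrations; 48 h exposure; 96-well plates; endpoints linearly interpolated, else capped at highest concentration. GI50 marks 50% less growth.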 Calls of active or inactive are those of the source. Rule as the data show it: active = GI50 up to about 1.1 µM and inactive = higher.

Key:
Test in all cases: NCI anticancer screen, dose series, 48 h
MDA-MB-231 = tested on: MDA-MB-231
BT-549 = tested on: BT-549
MDA-N = tested on: MDA-N
Hs-578T = tested on: Hs-578T
HOP-18 = tested on: HOP-18
SNB-78 = tested on: SNB-78
LXFL 529 = tested on: LXFL 529
RXF 631 = tested on: RXF 631

Structure (SMILES)	GI50 (MDA-MB-231)	GI50 (BT-549)	GI50 (MDA-N)	GI50 (Hs-578T)	GI50 (HOP-18)	GI50 (SNB-78)	GI50 (LXFL 529)	GI50 (RXF 631)
CSc1nc(N)c2c(-c3ccccc3)c3c(nc2n1)CCCC3	> 100 µM (inactive)	> 100 µM (inactive)	> 100 µM (inactive)	21.5 µM (inactive)				
COCCOCOc1ccc(OCc2ccccc2)cc1					> 100 µM (inactive)	> 100 µM (inactive)		
Cc1ccc(NC(=O)c2cccc([N+](=O)[O-])c2O)c(C)c1					1.02 µM (active)	26.9 µM (inactive)	14.7 µM (inactive)	
Cc1ccccc1-c1nc2c(C(=O)NCCN(C)C)cccc2[nH]1					8.02 µM (inactive)	51.5 µM (inactive)		
CC(C)(C)OC(=O)NCC(=O)NC1c2ccsc2/C(=N/O)[C@H]1O (some centres undefined)	> 100 µM (inactive)	> 100 µM (inactive)	> 100 µM (inactive)					
O=C1OC(c2ccc(O)c(F)c2)(c2ccc(O)c(F)c2)c2cccc3cccc1c23	> 25 µM (inactive)		15.6 µM (inactive)	2.03 µM (inactive)				
COc1cc2c(cc1OC)C(C1(O)CCCCC1)NCC2 (centres undefined)							> 100 µM (inactive)	
COc1cc2c(cc1Oc1ccc(OC)c3c1CC1c4c(cc(OC)c(OC)c4-3)CCN1C)CC1c3c(cc(OC)c(OC)c3-2)CCN1C (centres undefined)					14 µM (inactive)	7.01 µM (inactive)		
COc1cc(Cc2ccc3c(c2C#N)N(C)c2ccccc2S3)cc(OC)c1OC					72.4 µM (inactive)	> 100 µM (inactive)	6.87 µM (inactive)	
O=C1c2ccccc2OCC12OC21C=CC(Cl)=CC1 (centres undefined)	22 µM (inactive)	37.9 µM (inactive)	17 µM (inactive)					
CS(=O)(=O)C(C#N)c1nc2ccccc2nc1Cl (centres undefined)	> 100 µM (inactive)	> 100 µM (inactive)	> 100 µM (inactive)	70.6 µM (inactive)		> 100 µM (inactive)	> 100 µM (inactive)	
Cc1cc(NS(=O)(=O)c2ccc(NC(=O)c3cccc4c(Nc5ccc(S(N)(=O)=O)cc5)c5ccccc5nc34)cc2)no1						> 100 µM (inactive)	> 100 µM (inactive)	> 100 µM (inactive)
CC(=C/c1ccccc1)/C=C1/NC(=S)N(/C=C2\C(=O)Oc3ccccc3C2=O)C1=O	45.9 µM (inactive)		96.6 µM (inactive)					
CC(=O)ON1C(=O)c2cccc3cccc(c23)C1=O	29 µM (inactive)	20.9 µM (inactive)	18.3 µM (inactive)	23.6 µM (inactive)				
NC(=O)Oc1ccccc1 [CARBAMIC ACID PHENYL ESTER]	> 100 µM (inactive)		> 100 µM (inactive)	> 100 µM (inactive)				
